Test: isobaric coefficient of expansion
Settings: Liquid, DSC

CCCCCCCCCCCCC [tridecane]
isobaric coefficient of expansion
Settings	288.15 K	298.15 K	308.15 K	318.15 K	328.15 K	338.15 K	348.15 K
5000 kPa	0.00088 1/K	0.000891 1/K	0.000905 1/K	0.000919 1/K	0.000936 1/K	0.000958 1/K	0.00098 1/K
10000 kPa	0.00086 1/K	0.000868 1/K	0.00088 1/K	0.000892 1/K	0.000903 1/K	0.000917 1/K	0.000935 1/K
15000 kPa	0.00084 1/K	0.00085 1/K	0.000858 1/K	0.000865 1/K	0.00087 1/K	0.000882 1/K	0.000896 1/K
20000 kPa	0.000827 1/K	0.000828 1/K	0.000835 1/K	0.000838 1/K	0.000844 1/K	0.000853 1/K	0.000863 1/K
25000 kPa	0.000811 1/K	0.000812 1/K	0.000814 1/K	0.000818 1/K	0.00082 1/K	0.000827 1/K	0.000833 1/K
30000 kPa	0.000796 1/K	0.000799 1/K	0.000796 1/K	0.000799 1/K	0.0008 1/K	0.000801 1/K	0.000807 1/K
35000 kPa	0.000777 1/K	0.000782 1/K	0.000781 1/K	0.000781 1/K	0.000782 1/K	0.000783 1/K	0.000784 1/K
40000 kPa	0.000772 1/K	0.000771 1/K	0.000765 1/K	0.000763 1/K	0.000761 1/K	0.000761 1/K	0.000756 1/K
45000 kPa	0.000754 1/K	0.000755 1/K	0.00075 1/K	0.000748 1/K	0.000745 1/K	0.000741 1/K	0.000741 1/K
50000 kPa	0.000744 1/K	0.000744 1/K	0.000735 1/K	0.000734 1/K	0.000728 1/K	0.000728 1/K	0.000723 1/K
55000 kPa	0.000722 1/K	0.000725 1/K	0.000718 1/K	0.000718 1/K	0.000714 1/K	0.000714 1/K	0.000709 1/K

CCCCCCCCCCCCCC [tetradecane]
isobaric coefficient of expansion
Settings	298.15 K	308.15 K	318.15 K	328.15 K	338.15 K	348.15 K
5000 kPa	0.000909 1/K	0.000913 1/K	0.000918 1/K	0.000922 1/K	0.000931 1/K	0.000941 1/K
10000 kPa	0.000881 1/K	0.000884 1/K	0.00089 1/K	0.00089 1/K	0.000897 1/K	0.0009 1/K
15000 kPa	0.00086 1/K	0.000861 1/K	0.000863 1/K	0.000859 1/K	0.000863 1/K	0.000867 1/K
20000 kPa	0.000837 1/K	0.000836 1/K	0.000837 1/K	0.000833 1/K	0.000835 1/K	0.000839 1/K
25000 kPa	0.000815 1/K	0.000814 1/K	0.000815 1/K	0.00081 1/K	0.00081 1/K	0.000812 1/K
30000 kPa	0.000798 1/K	0.000793 1/K	0.000791 1/K	0.000789 1/K	0.000789 1/K	0.000789 1/K
35000 kPa	0.00078 1/K	0.000777 1/K	0.000774 1/K	0.00077 1/K	0.000768 1/K	0.000768 1/K
40000 kPa	0.000764 1/K	0.000761 1/K	0.000756 1/K	0.000753 1/K	0.000749 1/K	0.000747 1/K
45000 kPa	0.00075 1/K	0.000742 1/K	0.000738 1/K	0.000735 1/K	0.000732 1/K	0.000726 1/K
50000 kPa	0.000737 1/K	0.00073 1/K	0.000722 1/K	0.00072 1/K	0.000718 1/K	0.000711 1/K
55000 kPa	0.000725 1/K	0.000719 1/K	0.000714 1/K	0.000709 1/K	0.000705 1/K	0.000699 1/K

Reference: the NIST ThermoML archive (doi:10.1021/je900757k)
